How the values were obtained:
Test in all cases: biochemical
Parameters in all cases: KINOMEscan scanMAX competition binding, DNA-tagged kinases, qPCR read-out, percent control at 300 nM
EGFR(L861Q) = EGFR(L861Q) (Homo sapiens, UniProt P00533, L861Q); settings: read-out: Percent control / Tirabrutinib
PRKG1 = PRKG1 (Homo sapiens, UniProt Q13976); settings: read-out: Percent control / Tirabrutinib
ALK = ALK (Homo sapiens, UniProt Q9UM73); settings: read-out: Percent control / Ibrutinib
MYO3B = MYO3B (Homo sapiens, UniProt Q8WXR4); settings: read-out: Percent control / Ibrutinib
IKK-beta = target: T1, IKK-beta (Homo sapiens, UniProt O14920); settings: read-out: Percent control / Zanubrutinib
T1 construct: gene IKBKB

CSNK2A2 = CSNK2A2 (Homo sapiens, UniProt P19784); settings: read-out: Percent control / Zanubrutinib
TNK1 = TNK1 (Homo sapiens, UniProt Q13470); settings: read-out: Percent control / Zanubrutinib
LRRK2 = LRRK2 (Homo sapiens, UniProt Q5S007); settings: read-out: Percent control / Zanubrutinib
CDC2L5 = target: T2, CDC2L5 (Homo sapiens, UniProt Q14004); settings: read-out: Percent control / Zanubrutinib
T2 construct: gene CDK13

[1] = target: T3, ABL1(M351T)-phosphorylated (Homo sapiens, UniProt P00519, M351T); settings: read-out: Percent control / Zanubrutinib
T3 construct: phosphorylated

S6K1 = target: T4, S6K1 (Homo sapiens, UniProt P23443); settings: read-out: Percent control / Zanubrutinib
T4 construct: gene RPS6KB1

MEK6 = target: T5, MEK6 (Homo sapiens, UniProt P52564); settings: read-out: Percent control / Zanubrutinib
T5 construct: gene MAP2K6

ULK2 = ULK2 (Homo sapiens, UniProt Q8IYT8); settings: read-out: Percent control / Zanubrutinib
TGFBR2 = TGFBR2 (Homo sapiens, UniProt P37173); settings: read-out: Percent control / Zanubrutinib
ZAP70 = ZAP70 (Homo sapiens, UniProt P43403); settings: read-out: Percent control / Zanubrutinib
ASK1 = target: T6, ASK1 (Homo sapiens, UniProt Q99683); settings: read-out: Percent control / Acalabrutinib
T6 construct: gene MAP3K5

TGFBR1 = TGFBR1 (Homo sapiens, UniProt P36897); settings: read-out: Percent control / Acalabrutinib
CAMK2G = CAMK2G (Homo sapiens, UniProt Q13555); settings: read-out: Percent control / Acalabrutinib
PIK3CA(H1047Y) = PIK3CA(H1047Y) (Homo sapiens, UniProt P42336, H1047Y); settings: read-out: Percent control / Acalabrutinib
NEK5 = NEK5 (Homo sapiens, UniProt Q6P3R8); settings: read-out: Percent control / Acalabrutinib
HIPK1 = HIPK1 (Homo sapiens, UniProt Q86Z02); settings: read-out: Percent control / Acalabrutinib
CDC2L2 = target: T7, CDC2L2 (Homo sapiens, UniProt Q9UQ88); settings: read-out: Percent control / Acalabrutinib
T7 construct: gene CDK11A

PYK2 = target: T8, PYK2 (Homo sapiens, UniProt Q14289); settings: read-out: Percent control / Acalabrutinib
T8 construct: gene PTK2B

Chain of MYO3B (Q8WXR4 whole entry): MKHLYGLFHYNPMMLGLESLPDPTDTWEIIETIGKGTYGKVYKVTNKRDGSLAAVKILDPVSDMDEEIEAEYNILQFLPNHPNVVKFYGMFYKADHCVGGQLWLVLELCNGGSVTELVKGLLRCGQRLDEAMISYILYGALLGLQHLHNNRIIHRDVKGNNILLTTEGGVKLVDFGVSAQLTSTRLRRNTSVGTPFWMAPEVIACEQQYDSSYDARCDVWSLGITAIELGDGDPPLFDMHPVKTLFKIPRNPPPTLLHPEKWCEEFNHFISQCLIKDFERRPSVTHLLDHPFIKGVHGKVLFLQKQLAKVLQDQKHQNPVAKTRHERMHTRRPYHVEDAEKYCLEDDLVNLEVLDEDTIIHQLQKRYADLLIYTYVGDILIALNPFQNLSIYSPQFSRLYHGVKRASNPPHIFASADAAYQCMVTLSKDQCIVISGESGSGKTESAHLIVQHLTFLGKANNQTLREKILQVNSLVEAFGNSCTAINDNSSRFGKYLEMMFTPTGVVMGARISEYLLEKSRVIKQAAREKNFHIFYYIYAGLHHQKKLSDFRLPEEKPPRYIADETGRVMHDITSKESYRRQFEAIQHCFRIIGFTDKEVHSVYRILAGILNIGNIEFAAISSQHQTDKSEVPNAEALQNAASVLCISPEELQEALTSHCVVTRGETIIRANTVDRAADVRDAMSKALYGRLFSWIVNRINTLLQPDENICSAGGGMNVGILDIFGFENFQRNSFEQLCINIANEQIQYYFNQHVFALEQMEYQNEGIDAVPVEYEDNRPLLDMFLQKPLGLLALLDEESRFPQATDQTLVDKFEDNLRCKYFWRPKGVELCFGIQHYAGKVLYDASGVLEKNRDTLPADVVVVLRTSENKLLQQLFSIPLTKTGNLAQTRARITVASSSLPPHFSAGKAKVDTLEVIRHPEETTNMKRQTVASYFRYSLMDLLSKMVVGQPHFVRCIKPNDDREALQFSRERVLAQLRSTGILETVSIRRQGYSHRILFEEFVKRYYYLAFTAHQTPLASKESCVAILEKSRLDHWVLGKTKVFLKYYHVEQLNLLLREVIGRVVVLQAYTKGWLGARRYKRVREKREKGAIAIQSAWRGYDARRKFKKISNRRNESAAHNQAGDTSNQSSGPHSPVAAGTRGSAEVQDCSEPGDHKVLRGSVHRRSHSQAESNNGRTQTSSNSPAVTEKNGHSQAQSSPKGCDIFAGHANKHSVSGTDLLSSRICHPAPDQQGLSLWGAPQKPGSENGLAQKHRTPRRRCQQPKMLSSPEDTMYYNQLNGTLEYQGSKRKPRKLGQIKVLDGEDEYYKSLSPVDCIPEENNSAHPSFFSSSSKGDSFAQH
Chain of ULK2 (Q8IYT8 whole entry): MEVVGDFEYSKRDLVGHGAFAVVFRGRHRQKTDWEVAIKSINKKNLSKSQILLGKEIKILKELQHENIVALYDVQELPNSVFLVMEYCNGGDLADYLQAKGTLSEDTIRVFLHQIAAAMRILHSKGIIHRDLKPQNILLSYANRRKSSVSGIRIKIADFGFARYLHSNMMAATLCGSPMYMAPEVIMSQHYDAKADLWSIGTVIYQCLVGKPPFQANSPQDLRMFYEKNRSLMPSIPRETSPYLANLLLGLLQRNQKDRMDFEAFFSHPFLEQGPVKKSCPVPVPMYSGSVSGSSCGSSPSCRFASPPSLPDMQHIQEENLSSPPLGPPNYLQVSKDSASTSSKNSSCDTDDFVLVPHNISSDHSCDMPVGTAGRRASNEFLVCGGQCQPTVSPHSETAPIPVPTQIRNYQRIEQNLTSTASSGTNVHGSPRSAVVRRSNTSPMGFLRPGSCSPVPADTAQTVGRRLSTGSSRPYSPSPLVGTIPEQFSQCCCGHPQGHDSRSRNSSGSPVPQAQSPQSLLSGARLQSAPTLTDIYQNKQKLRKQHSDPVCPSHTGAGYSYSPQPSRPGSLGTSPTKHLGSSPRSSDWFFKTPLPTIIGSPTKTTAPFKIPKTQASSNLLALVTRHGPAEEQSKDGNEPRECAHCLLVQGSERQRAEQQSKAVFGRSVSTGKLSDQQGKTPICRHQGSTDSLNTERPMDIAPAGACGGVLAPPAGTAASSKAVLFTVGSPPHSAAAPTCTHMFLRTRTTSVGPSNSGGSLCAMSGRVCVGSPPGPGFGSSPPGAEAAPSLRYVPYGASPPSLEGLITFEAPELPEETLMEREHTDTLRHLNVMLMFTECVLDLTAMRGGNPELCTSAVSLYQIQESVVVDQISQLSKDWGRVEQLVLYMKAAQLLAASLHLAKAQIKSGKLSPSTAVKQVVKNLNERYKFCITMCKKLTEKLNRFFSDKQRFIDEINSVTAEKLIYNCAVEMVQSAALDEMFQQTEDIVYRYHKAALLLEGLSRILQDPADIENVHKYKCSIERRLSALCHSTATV
Chain of PRKG1 (Q13976 whole entry): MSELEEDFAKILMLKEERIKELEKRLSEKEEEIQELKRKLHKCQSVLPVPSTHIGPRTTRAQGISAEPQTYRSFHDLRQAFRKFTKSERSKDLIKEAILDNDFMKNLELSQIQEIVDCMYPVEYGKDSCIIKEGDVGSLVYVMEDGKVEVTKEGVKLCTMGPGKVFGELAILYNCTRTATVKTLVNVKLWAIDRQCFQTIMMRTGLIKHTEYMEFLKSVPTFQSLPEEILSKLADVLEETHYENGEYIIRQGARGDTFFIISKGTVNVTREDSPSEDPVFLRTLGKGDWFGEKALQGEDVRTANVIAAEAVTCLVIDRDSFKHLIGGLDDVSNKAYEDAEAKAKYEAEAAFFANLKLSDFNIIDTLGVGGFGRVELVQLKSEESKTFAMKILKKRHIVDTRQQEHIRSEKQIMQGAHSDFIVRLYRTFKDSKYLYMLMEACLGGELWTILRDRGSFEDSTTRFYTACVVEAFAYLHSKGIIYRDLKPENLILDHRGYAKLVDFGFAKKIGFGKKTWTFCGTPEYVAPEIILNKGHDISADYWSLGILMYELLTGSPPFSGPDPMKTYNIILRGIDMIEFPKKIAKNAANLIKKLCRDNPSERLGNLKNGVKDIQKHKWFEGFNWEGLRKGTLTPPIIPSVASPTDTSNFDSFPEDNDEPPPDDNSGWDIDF
T5 sequence (P52564 whole entry): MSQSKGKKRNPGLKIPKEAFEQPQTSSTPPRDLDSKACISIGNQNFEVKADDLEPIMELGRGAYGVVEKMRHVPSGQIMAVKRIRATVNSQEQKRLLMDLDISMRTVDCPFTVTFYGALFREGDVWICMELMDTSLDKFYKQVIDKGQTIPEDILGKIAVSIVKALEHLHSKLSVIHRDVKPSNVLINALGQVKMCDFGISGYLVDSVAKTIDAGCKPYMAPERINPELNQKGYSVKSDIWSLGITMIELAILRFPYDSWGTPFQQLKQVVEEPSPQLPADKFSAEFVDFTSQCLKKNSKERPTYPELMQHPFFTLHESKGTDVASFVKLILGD
Chain of TNK1 (Q13470 whole entry): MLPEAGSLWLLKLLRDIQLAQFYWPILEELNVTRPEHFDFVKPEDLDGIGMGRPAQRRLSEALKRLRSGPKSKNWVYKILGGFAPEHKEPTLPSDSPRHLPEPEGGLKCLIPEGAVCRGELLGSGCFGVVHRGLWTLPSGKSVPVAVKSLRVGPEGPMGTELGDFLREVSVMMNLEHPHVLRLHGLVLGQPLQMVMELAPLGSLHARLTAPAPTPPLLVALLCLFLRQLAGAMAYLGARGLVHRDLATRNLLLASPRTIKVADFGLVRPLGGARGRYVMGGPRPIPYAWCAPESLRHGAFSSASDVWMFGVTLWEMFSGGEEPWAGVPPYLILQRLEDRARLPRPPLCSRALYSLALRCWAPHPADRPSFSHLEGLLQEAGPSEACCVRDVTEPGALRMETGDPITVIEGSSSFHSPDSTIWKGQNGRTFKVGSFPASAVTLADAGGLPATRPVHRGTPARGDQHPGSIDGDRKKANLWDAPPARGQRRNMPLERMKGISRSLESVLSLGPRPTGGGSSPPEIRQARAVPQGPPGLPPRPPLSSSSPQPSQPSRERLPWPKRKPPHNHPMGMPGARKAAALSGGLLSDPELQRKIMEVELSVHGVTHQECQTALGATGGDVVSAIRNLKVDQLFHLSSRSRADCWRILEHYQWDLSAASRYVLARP
T7 sequence (Q9UQ88 whole entry): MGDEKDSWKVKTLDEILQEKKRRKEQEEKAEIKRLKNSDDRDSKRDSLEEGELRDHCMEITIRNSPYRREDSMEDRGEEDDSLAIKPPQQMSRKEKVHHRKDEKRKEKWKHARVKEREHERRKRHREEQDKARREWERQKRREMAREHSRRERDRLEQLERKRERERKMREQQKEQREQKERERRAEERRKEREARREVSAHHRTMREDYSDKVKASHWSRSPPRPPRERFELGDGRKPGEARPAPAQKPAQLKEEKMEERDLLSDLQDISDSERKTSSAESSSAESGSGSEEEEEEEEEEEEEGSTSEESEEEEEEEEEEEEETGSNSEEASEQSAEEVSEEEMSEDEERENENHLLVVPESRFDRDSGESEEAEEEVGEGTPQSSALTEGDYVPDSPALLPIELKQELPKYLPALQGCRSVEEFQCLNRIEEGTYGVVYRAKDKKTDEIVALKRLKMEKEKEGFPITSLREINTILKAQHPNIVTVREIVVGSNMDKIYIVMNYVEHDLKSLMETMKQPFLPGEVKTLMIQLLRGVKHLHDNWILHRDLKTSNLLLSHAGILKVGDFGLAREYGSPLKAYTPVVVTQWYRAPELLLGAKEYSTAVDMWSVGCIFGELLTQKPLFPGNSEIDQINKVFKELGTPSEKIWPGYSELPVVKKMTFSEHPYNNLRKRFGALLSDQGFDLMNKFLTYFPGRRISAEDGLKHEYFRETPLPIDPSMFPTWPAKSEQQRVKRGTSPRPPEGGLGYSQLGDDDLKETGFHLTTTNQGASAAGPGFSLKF

CC#CC(=O)N1CC[C@@H](n2c(=O)n(-c3ccc(Oc4ccccc4)cc3)c3c(N)ncnc32)C1 [Tirabrutinib]
remaining binding at 0.3 µM (EGFR(L861Q)): 86% | remaining binding at 0.3 µM (PRKG1): 90%

C=CC(=O)N1CCC[C@@H](n2nc(-c3ccc(Oc4ccccc4)cc3)c3c(N)ncnc32)C1 [Ibrutinib]
remaining binding at 0.3 µM (ALK): 87% | remaining binding at 0.3 µM (MYO3B): 80%

C=CC(=O)N1CCC([C@@H]2CCNc3c(C(N)=O)c(-c4ccc(Oc5ccccc5)cc4)nn32)CC1 [Zanubrutinib]
remaining binding at 0.3 µM (IKK-beta): 100% | remaining binding at 0.3 µM (CSNK2A2): 100% | remaining binding at 0.3 µM (TNK1): 93% | remaining binding at 0.3 µM (LRRK2): 64% | remaining binding at 0.3 µM (CDC2L5): 99% | remaining binding at 0.3 µM [1]: 83% | remaining binding at 0.3 µM (S6K1): 88% | remaining binding at 0.3 µM (MEK6): 75% | remaining binding at 0.3 µM (ULK2): 99% | remaining binding at 0.3 µM (TGFBR2): 90% | remaining binding at 0.3 µM (ZAP70): 68%

CC#CC(=O)N1CCC[C@H]1c1nc(-c2ccc(C(=O)Nc3ccccn3)cc2)c2c(N)nccn12 [Acalabrutinib]
remaining binding at 0.3 µM (ASK1): 93% | remaining binding at 0.3 µM (TGFBR1): 96% | remaining binding at 0.3 µM (CAMK2G): 95% | remaining binding at 0.3 µM (PIK3CA(H1047Y)): 70% | remaining binding at 0.3 µM (NEK5): 96% | remaining binding at 0.3 µM (HIPK1): 85% | remaining binding at 0.3 µM (CDC2L2): 82% | remaining binding at 0.3 µM (PYK2): 89%

Source: article PMC10004634 (PLOS ONE, 2023)
